According to patent publication US7368471B2, “Substituted indole acid derivatives as inhibitors of plasminogen activator inhibitor-1 (PAI-1)” (Wyeth, priority 2001, dated 2008):

What was measured:
[1] = biological target: T1, recombinant human plasminogen activator inhibitor-1 (PAI-1) (Homo sapiens, UniProt P05121); assay: Primary Screen for the PAI-1 Inhibition (residual tPA activity, Spectrozyme-tPA chromogenic substrate); type: biochemical; details: 25 μM test compound
T1 construct: purchased Molecular Innovations, Royal Oak, Mich
T1 sequence (P05121 24-402): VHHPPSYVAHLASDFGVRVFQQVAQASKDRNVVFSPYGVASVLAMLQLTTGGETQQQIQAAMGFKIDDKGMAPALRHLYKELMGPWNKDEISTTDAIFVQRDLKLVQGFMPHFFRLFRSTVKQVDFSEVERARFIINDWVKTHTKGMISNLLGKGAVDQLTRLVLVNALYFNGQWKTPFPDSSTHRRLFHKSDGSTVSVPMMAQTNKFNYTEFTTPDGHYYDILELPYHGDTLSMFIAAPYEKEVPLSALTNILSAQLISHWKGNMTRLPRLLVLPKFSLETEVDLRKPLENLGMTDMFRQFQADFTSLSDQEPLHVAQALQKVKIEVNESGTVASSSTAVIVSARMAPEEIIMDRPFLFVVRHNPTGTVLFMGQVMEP
Protocol: Primary Screen for the PAI-1 Inhibition
Test compounds are dissolved in DMSO at a final concentration of 10 mM, then diluted 100× in physiologic buffer. The inhibitory assay is initiated by the addition of the test compound (1-100 μM final concentration, maximum DMSO concentration of 0.2%) in a pH 6.6 buffer containing 140 nM recombinant human plasminogen activator inhibitor-1 (PAI-1; Molecular Innovations, Royal Oak, Mich.). Following a 1 hour incubation at room temperature, 70 nM of recombinant human tissue plasminogen activator (tPA) is added, and the combination of the test compound, PAI-1 and tPA is incubated for an additional 30 minutes. Following the second incubation, Spectrozyme-tPA (American Diagnostica, Greenwich, Conn.), a chromogenic substrate for tPA, is added and absorbance read at 405 nm at 0 and 60 minutes. Relative PAI-1 inhibition is equal to the residual tPA activity in the presence of the test compound and PAI-1. Control treatments include the complete inhibition of tPA by PAI-1 at the molar ratio employed (2:1), and the absence of any effect of the test compound on tPA alone.

Row | Compound | inhibition at 25 µM [1] [%] | melting point | % Inhibition @ 25 μM [1] [%]
1 | Cn1cc(C(=O)C(=O)O)c2ccc(-c3ccc(OC(F)(F)F)cc3)cc21 [Example 1, {1-Methyl-6-[4-(trifluoromethoxy)phenyl]-1H-indol-3-yl}(oxo)acetic acid] | 15 | 233 to 235 °C (dec.) | –
2 | CCn1cc(C(=O)C(=O)O)c2ccc(-c3ccc(OC(F)(F)F)cc3)cc21 [Example 3, {1-Ethyl-6-[4-(trifluoromethoxy)phenyl]-1H-indol-3-yl}(oxo)acetic acid] | 24 | 204 to 205 °C | –
3 | CCn1cc(C(=O)C(=O)O)c2ccc(-c3ccc(C(F)(F)F)cc3)cc21 [Example 4, {1-Ethyl-6-[4-(trifluoromethyl)phenyl]-1H-indol-3-yl}(oxo)acetic acid] | 16 | 247 to 248 °C | –
4 | O=C(O)C(=O)c1cn(Cc2ccccc2)c2cc(-c3ccc(C(F)(F)F)cc3)ccc12 [Example 6, {1-Benzyl-6-[4-(trifluoromethyl)phenyl]-1H-indol-3-yl}(oxo)acetic acid] | 27 | 223 to 224 °C (dec.) | –
5 | CC(C)(C)c1ccc(Cn2cc(C(=O)C(=O)O)c3ccc(-c4ccc(C(F)(F)F)cc4)cc32)cc1 [Example 7, {1-[4-(tert-Butyl)benzyl]-6-[4-(trifluoromethyl)phenyl]-1H-indol-3-yl}(oxo)acetic acid] | 26 | 205 to 206 °C (dec.) | –
6 | O=C(O)C(=O)c1cn(Cc2ccccc2)c2ccc(-c3ccc(C(F)(F)F)cc3)cc12 [Example 9, {1-Benzyl-5-[4-(trifluoromethyl)phenyl]-1H-indol-3-yl}(oxo)acetic acid] | 40 | 201 to 202 °C (dec.) | –
7 | Cn1cc(C(=O)C(=O)O)c2ccc(-c3ccc(C(C)(C)C)cc3)cc21 [Example 10, {6-[4-(tert-Butyl)phenyl]-1-methyl-1H-indol-3-yl}(oxo)acetic acid] | 33 | 201 to 202 °C (dec.) | –
8 | CC(=O)c1ccc(-c2ccc3c(c2)c(C(=O)C(=O)O)cn3Cc2ccccc2)cc1 [Example 11, [5-(4-Acetylphenyl)-1-benzyl-1H-indol-3-yl](oxo)acetic acid] | 19 | 213 to 214 °C (dec.) | –
9 | O=C(O)C(=O)c1cn(Cc2ccccc2)c2cccc(-c3ccc(C(F)(F)F)cc3)c12 [Example 13, {1-Benzyl-4-[4-(trifluoromethyl)phenyl]-1H-indol-3-yl}(oxo)acetic acid] | 27 | 183 to 184 °C | –
10 | CC(C)(C)c1ccc(-c2ccc3c(c2)c(C(=O)C(=O)O)cn3Cc2ccccc2)cc1 [Example 14, {1-Benzyl-5-[4-(tert-butyl)phenyl]-1H-indol-3-yl}(oxo)acetic acid] | 55 | 210 to 211 °C (dec.) | –
11 | O=C(O)C(=O)c1cn(Cc2ccccc2)c2cccc(-c3ccc(OC(F)(F)F)cc3)c12 [Example 20, {1-Benzyl-4-[4-(trifluoromethoxy)phenyl]-1H-indol-3-yl}(oxo)acetic acid] | 14 | – | –
12 | O=C(O)C(=O)c1cn(Cc2ccccc2)c2cc(-c3ccccc3)ccc12 [Example 23, (1-Benzyl-6-phenyl-1H-indol-3-yl)(oxo)acetic acid] | 40 | – | –
13 | O=C(O)C(=O)c1cn(Cc2ccccc2)c2ccc(-c3ccccc3)cc12 [Example 24, (1-Benzyl-5-phenyl-1H-indol-3-yl)(oxo)acetic acid] | 47 | 193 to 195 °C (dec.) | –
14 | CCCCn1cc(C(=O)C(=O)O)c2cc(-c3cccc(OC)c3)ccc21 [Example 31, [1-Butyl-5-(3-methoxyphenyl)-1H-indol-3-yl](oxo)acetic acid] | 32 | 108 to 109 °C | –
15 | CCCCn1cc(C(=O)C(=O)O)c2cc(-c3ccc(OC)cc3)ccc21 [Example 32, [1-Butyl-5-(4-methoxyphenyl)-1H-indol-3-yl](oxo)acetic acid] | 28 | 172 to 173 °C | –
16 | CC(C)(C)c1ccc(Cn2cc(C(=O)C(=O)O)c3cc(-c4ccc(Cl)cc4)ccc32)cc1 [Example 38, [1-(4-tert-Butylbenzyl)-5-(4-chlorophenyl)-1H-indol-3-yl](oxo)acetic acid] | 14 | 183 to 184 °C | –
17 | CC(=O)OCc1c(C(=O)C(=O)O)c2cc(-c3ccc(OC(F)(F)F)cc3)ccc2n1Cc1ccc(C)cc1 [Example 41, {2-[(Acetyloxy)methyl]-1-(4-methylbenzyl)-5-[4-(trifluoromethoxy)phenyl]-1H-indol-3-yl}(oxo)acetic acid] | 13 | 79 to 80 °C | –
18 | O=C(O)C(=O)c1cn(C2CCCC2)c2ccc(-c3cccc(Cl)c3)cc12 [Example 45, [5-(3-Chlorophenyl)-1-cyclopentyl-1H-indol-3-yl]-oxo-acetic acid] | 45 | – | –

Row | Compound | inhibition at 25 µM [1] [%] | melting point | % Inhibition @ 25 μM [1] [%]
19 | O=C(O)C(=O)c1cn(CC2CCC2)c2ccc(-c3cccc(Cl)c3)cc12 [Example 46, [5-(3-chlorophenyl)-1-(cyclobutylmethyl)-1H-indol-3-yl](oxo)acetic acid] | 45 | – | –
20 | O=C(O)C(=O)c1cn(C2CCCC2)c2ccc(-c3ccc(C(F)(F)F)cc3)cc12 [Example 49, [5-(4-trifluoromethylphenyl)-1-(cyclopentyl)-1H-indol-3-yl](oxo)acetic acid] | 54 | – | –
21 | O=C(O)C(=O)c1cn(CC2CCC2)c2ccc(-c3ccc(C(F)(F)F)cc3)cc12 [Example 50, [5-(4-trifluoromethylphenyl)-1-(cyclobutylmethyl)-1H-indol-3-yl](oxo)acetic acid] | 59 | – | –
22 | CC1CCC(n2cc(C(=O)C(=O)O)c3cc(-c4ccc(C(F)(F)F)cc4)ccc32)C1 (centres unmarked) [Example 51, [5-(4-trifluoromethylphenyl)-1-(3-methylcyclopentyl)-1H-indol-3-yl](oxo)acetic acid] | 58 | – | –
23 | O=C(O)C(=O)c1cn(CC2CCCCC2)c2ccc(-c3ccc(C(F)(F)F)cc3)cc12 [Example 52, [5-(4-trifluoromethylphenyl)-1-(cyclohexylmethyl)-1H-indol-3-yl](oxo)acetic acid] | 59 | – | –
24 | O=C(O)C(=O)c1cn(CCCC2CCCC2)c2ccc(-c3ccc(C(F)(F)F)cc3)cc12 [Example 53, [5-(4-trifluoromethylphenyl)-1-(cyclopentylpropyl)-1H-indol-3-yl](oxo)acetic acid] | 67 | – | –
25 | O=C(O)C(=O)c1cn(C2CCCC2)c2ccc(-c3cccc(C(F)(F)F)c3)cc12 [Example 54, [5-(3-trifluoromethylphenyl)-1-(cyclopentyl)-1H-indol-3-yl](oxo)acetic acid] | 46 | – | –
26 | O=C(O)C(=O)c1cn(CC2CCC2)c2ccc(-c3cccc(C(F)(F)F)c3)cc12 [Example 55, [5-(3-trifluoromethylphenyl)-1-(cyclobutylmethyl)-1H-indol-3-yl](oxo)acetic acid] | 51 | – | –
27 | CC1CCC(n2cc(C(=O)C(=O)O)c3cc(-c4cccc(C(F)(F)F)c4)ccc32)C1 (centres unmarked) [Example 56, [5-(3-trifluoromethylphenyl)-1-(3-methylcyclopentyl)-1H-indol-3-yl](oxo)acetic acid] | 54 | – | –
28 | O=C(O)C(=O)c1cn(CC2CCCCC2)c2ccc(-c3cccc(C(F)(F)F)c3)cc12 [Example 57, [5-(3-trifluoromethylphenyl)-1-(cyclohexylmethyl)-1H-indol-3-yl](oxo)acetic acid] | 57 | – | –
29 | O=C(O)C(=O)c1cn(CCCC2CCCC2)c2ccc(-c3cccc(C(F)(F)F)c3)cc12 [Example 58, [5-(3-trifluoromethylphenyl)-1-(cyclopentylpropyl)-1H-indol-3-yl](oxo)acetic acid] | 61 | – | –
30 | COc1ccc(-c2ccc3c(c2)c(C(=O)C(=O)O)cn3CC2CCCCC2)cc1 [Example 59, [5-(4-methoxyphenyl)-1-(cyclohexylmethyl)-1H-indol-3-yl](oxo)acetic acid] | 58 | – | –
31 | Cn1cc(C(=O)O)c2ccc(-c3ccc(C(F)(F)F)cc3)cc21 [Example 60, 1-Methyl-6-(4-trifluoromethyl-phenyl)-1H-indole-3-carboxylic acid] | 39 | 237 to 239 °C (dec.) | –
32 | Cn1cc(C(=O)O)c2ccc(-c3ccc(C(C)(C)C)cc3)cc21 [Example 61, 6-(4-tert-Butyl-phenyl)-1-methyl-1H-indole-3-carboxylic acid] | 28 | 236 to 238 °C (dec.) | –
33 | Cn1cc(CC(=O)O)c2cc(-c3ccc(C(F)(F)F)cc3)ccc21 [Example 63, [1-Methyl-5-(4-trifluoromethyl-phenyl)-1H-indol-3-yl]-acetic acid] | – | 167 to 168 °C | –
34 | Cc1cccc(-c2ccc3c(c2)c(CC(=O)O)cn3Cc2ccc(C(C)(C)C)cc2)c1 [Example 64, 2-[1-[4-(tert-Butyl)benzyl]-5-(3-methylphenyl)-1H-indol-3-yl]-acetic acid] | – | 91 to 92 °C | –
35 | Cc1ccc(Cn2cc(CC(=O)O)c3cc(-c4ccc(OC(F)(F)F)cc4)ccc32)cc1 [Example 65, {1-(4-Methylbenzyl)-5-[4-(trifluoromethoxy)phenyl]-1H-indol-3-yl}acetic acid] | – | 62 to 63 °C | –
36 | [5-(3-chlorophenyl)-1-(3-methylcyclopropyl)-1H-indol-3-yl](oxo)acetic acid [Example 47] | – | – | 51
